Data as given in patent US20260285857A1, “BICYCLIC AND HETEROCYCLIC AMIDE COMPOUNDS” (priority 2024, published 2026).

Each molecule was assayed on immunoglobulin light chain protein WIL-FL T46L (assay: Differential scanning fluorimetry (thermal shift) assay). Conditions: Table B; temperature shift [Tm]compound-[Tm]vehicle; recombinant WIL-FL T46L.
Format: binding
In the case of `Cc1cc(N2CC[C@](C)(c3ccccc3)C2)cn2nc(C34CC(C#N)(CO3)C4)nc12` [Compound 464, (R)-1-(8-methyl-6-(3-methyl-3-phenylpyrrolidin-1-yl)-[1,2,4]triazolo[1,5-a]pyridin-2-yl)-2-oxabicyclo[2.1.1]hexane-4-carbonitrile], the DSF is reported as “***** (>2.5° C.=*****)”.
With `Cc1cc(N2CC[C@](C)(c3ccccc3)C2)cn2nc(C34CC(Nc5cccc(C(=O)O)n5)(CO3)C4)nc12` [Compound 465, (R)-6-((1-(8-methyl-6-(3-methyl-3-phenylpyrrolidin-1-yl)-[1,2,4]triazolo[1,5-a]pyridin-2-yl)-2-oxabicyclo[2.1.1]hexan-4-yl)amino)picolinic acid] the DSF was “***** (>2.5° C.=*****)”.
In the case of `Cc1cc(N2CC[C@](C)(c3ccccc3)C2)cn2nc(C34CC(NC(=O)c5cccc(C(=O)O)n5)(CO3)C4)nc12` [Compound 466, (R)-6-((1-(8-methyl-6-(3-methyl-3-phenylpyrrolidin-1-yl)-[1,2,4]triazolo[1,5-a]pyridin-2-yl)-2-oxabicyclo[2.1.1]hexan-4-yl)carbamoyl)picolinic acid], the DSF is reported as “***** (>2.5° C.=*****)”.
With `Cc1cc(N2CC[C@](C)(c3ccccc3)C2)cn2nc(C34CC(NC(=O)C5(C(=O)O)CCC5)(CO3)C4)nc12` [Compound 467] the DSF was “***** (>2.5° C.=*****)”.
In the case of `Cc1cc(N2CC[C@](C)(c3ccccc3)C2)cn2nc(C34CC(NC(=O)C5CC(C(=O)O)C5)(CO3)C4)nc12` (some centres unmarked) [Compound 468], the DSF is reported as “***** (>2.5° C.=*****)”.
In the case of `Cc1cc(N2CC[C@](C)(c3ccccc3)C2)cn2nc(C34CC(N5CCC(C(=O)O)CC5=O)(CO3)C4)nc12` (stereo partly drawn) [Compound 469, 1-(1-(8-methyl-6-((R)-3-methyl-3-phenylpyrrolidin-1-yl)-[1,2,4]triazolo[1,5-a]pyridin-2-yl)-2-oxabicyclo[2.1.1]hexan-4-yl)-2-oxopiperidine-4-carboxylic acid], the DSF is reported as “***** (>2.5° C.=*****)”.
With `Cc1cc(N2CC[C@](C)(c3ccccc3)C2)cn2nc(C34CC(N5CC6(CC6C(=O)O)C5)(CO3)C4)nc12` (stereo partly drawn) [Compound 470, 5-[1-[8-methyl-6-[(3R)-3-methyl-3-phenyl-pyrrolidin-1-yl]-[1,2,4]triazolo[1,5-a]pyridin-2-yl]-2-oxabicyclo[2.1.1]hexan-4-yl]-5-azaspiro[2.3]hexane-2-carboxylic acid] the DSF was “***** (>2.5° C.=*****)”.
For `Cc1cc(N2CC[C@@](C)(n3ccc(C(F)(F)F)n3)C2)cn2nc(C34CC(N)(CO3)C4)nc12` [Compound 471, (R)-1-(8-methyl-6-(3-methyl-3-(3-(trifluoromethyl)-1H-pyrazol-1-yl)pyrrolidin-1-yl)-[1,2,4]triazolo[1,5-a]pyridin-2-yl)-2-oxabicyclo[2.1.1]hexan-4-amine], the DSF was “**** (>1.5-2.5° C.=****)”.
With `Cc1cc(N2CC[C@](C)(c3ccccc3)C2)cn2nc(C34CC(N5CCC(C(=O)O)CC5)(CO3)C4)nc12` [Compound 472, (R)-1-(1-(8-methyl-6-(3-methyl-3-phenylpyrrolidin-1-yl)-[1,2,4]triazolo[1,5-a]pyridin-2-yl)-2-oxabicyclo[2.1.1]hexan-4-yl)piperidine-4-carboxylic acid] the DSF was “***** (>2.5° C.=*****)”.
In the case of `Cc1cc(N2CC[C@](C)(c3ccccc3)C2)cn2nc(C34CC(CO)(C3)C(C)(C)O4)nc12` [Compound 473, (R)-(3,3-dimethyl-1-(8-methyl-6-(3-methyl-3-phenylpyrrolidin-1-yl)-[1,2,4]triazolo[1,5-a]pyridin-2-yl)-2-oxabicyclo[2.1.1]hexan-4-yl)methanol], the DSF is reported as “***** (>2.5° C.=*****)”.
`Cc1cc(N2CC[C@](C)(c3ccccc3)C2)cn2nc(C3OC4(C)CC3(C(=O)O)C4)nc12` (stereo partly drawn) [Compound 474, 1-methyl-3-[8-methyl-6-[(3R)-3-methyl-3-phenyl-pyrrolidin-1-yl]-[1,2,4]triazolo[1,5-a]pyridin-2-yl]-2-oxabicyclo[2.1.1]hexane-4-carboxylic acid] was tested, and the DSF was “**** (>1.5-2.5° C.=****)”.
For `CCC(=O)NC12CC(C)(C1)OC2c1nc2c(C)cc(N3CC[C@](C)(c4ccccc4)C3)cn2n1` (stereo partly drawn) [Compound 475, N-[1-methyl-3-[8-methyl-6-[(3R)-3-methyl-3-phenyl-pyrrolidin-1-yl]-[1,2,4]triazolo[1,5-a]pyridin-2-yl]-2-oxabicyclo[2.1.1]hexan-4-yl]propanamide], the DSF was “***** (>2.5° C.=*****)”.
In the case of `Cc1cc(N2CC[C@](C)(c3ccccc3)C2)cn2nc(C3OC4(C)CC3(C(N)=O)C4)nc12` (some centres unmarked) [Compound 476], the DSF is reported as “***** (>2.5° C.=*****)”.
`Cc1cc(N2CC[C@](C)(c3ccccc3)C2)cn2nc(C34CC(CO3)C4C(=O)Nc3cccc(C(=O)O)n3)nc12` (some centres unmarked) [Compound 478] was tested, and the DSF was “***** (>2.5° C.=*****)”.
`C[C@]1(c2ccccc2)CCN(c2cc(CO)c3nc(C45CC(CO4)C5c4ncn[nH]4)nn3c2)C1` (some centres unmarked) [Compound 479] was tested, and the DSF was “***** (>2.5° C.=*****)”.
`Cc1cc(N2CC[C@](C)(c3ccccc3)C2)cn2nc(C34CC(CO3)C4Cn3cc(CO)nn3)nc12` (some centres unmarked) [Compound 481] was tested, and the DSF was “***** (>2.5° C.=*****)”.
With `Cc1cc(N2CC[C@](C)(c3ccccc3)C2)cn2nc(C34CC(CO3)C4Cn3ncc(CO)n3)nc12` (some centres unmarked) [Compound 482] the DSF was “***** (>2.5° C.=*****)”.
With `Cc1n[nH]c(C2C3COC2(c2nc4c(CN)cc(N5CC[C@](C)(c6ccccc6)C5)cn4n2)C3)n1` (some centres unmarked) [Compound 483] the DSF was “***** (>2.5° C.=*****)”.
`Cc1cc(C2C3COC2(c2nc4c(C)cc(N5CC[C@](C)(c6ccccc6)C5)cn4n2)C3)[nH]n1` (some centres unmarked) [Compound 484] was tested, and the DSF was “***** (>2.5° C.=*****)”.
With `Cc1nc(C2C3COC2(c2nc4c(C)cc(N5CC[C@](C)(c6ccccc6)C5)cn4n2)C3)cs1` (some centres unmarked) [Compound 485] the DSF was “***** (>2.5° C.=*****)”.
For `Cc1cc(OC[C@H](C)c2ccccc2)cn2nc(C34CC(CO3)C4Cn3ncnc3C)nc12` (stereo partly drawn) [Compound 486, 8-methyl-2-[5-[(5-methyl-1,2,4-triazol-1-yl)methyl]-2-oxabicyclo[2.1.1]hexan-1-yl]-6-[(2R)-2-phenylpropoxy]-[1,2,4]triazolo[1,5-a]pyridine], the DSF was “**** (>1.5-2.5° C.=****)”.
`Cc1ncn(CC2C3COC2(c2nc4c(C)cc(OC[C@H](C)c5ccccc5)cn4n2)C3)n1` (stereo partly drawn) [Compound 487, 8-methyl-2-(5-((3-methyl-1H-1,2,4-triazol-1-yl)methyl)-2-oxabicyclo[2.1.1]hexan-1-yl)-6-((R)-2-phenylpropoxy)-[1,2,4]triazolo[1,5-a]pyridine] was tested, and the DSF was “*** (>1-1.5° C.=***)”.
For `Cc1cc(N2CC[C@](C)(c3ccccc3)C2)cn2nc(C34CC(CO3)C4CN3CCN(C)C(=O)C3)nc12` (some centres unmarked) [Compound 488], the DSF was “***** (>2.5° C.=*****)”.
In the case of `C[C@]1(c2ccccc2)CCN(c2cc(CO)c3nc(C45CC(CO4)C5CO)nn3c2)C1` (some centres unmarked) [Compound 489], the DSF is reported as “***** (>2.5° C.=*****)”.
For `Cc1cc(N2CC[C@](C)(c3ccccc3)C2)cn2nc(C34CC(CO3)C4CN3CCC(C(=O)O)CC3=O)nc12` (some centres unmarked) [Compound 490], the DSF was “***** (>2.5° C.=*****)”.
With `Cc1n[nH]c([C@H]2[C@H]3CO[C@]2(c2nc4c(C)cc(N5CC[C@](C)(c6ccccc6)C5)cn4n2)C3)n1` [Compound 491, 8-methyl-6-[(3R)-3-methyl-3-phenyl-pyrrolidin-1-yl]-2-[(1R,4S,5R)-5-(3-methyl-1H-1,2,4-triazol-5-yl)-2-oxabicyclo[2.1.1]hexan-1-yl]-[1,2,4]triazolo[1,5-a]pyridine] the DSF was “***** (>2.5° C.=*****)”.
